What all share (type): biochemical
The target of one assay is T1, human ME3 enzyme (Homo sapiens, UniProt Q16798).
T1 sequence (Q16798 1-604): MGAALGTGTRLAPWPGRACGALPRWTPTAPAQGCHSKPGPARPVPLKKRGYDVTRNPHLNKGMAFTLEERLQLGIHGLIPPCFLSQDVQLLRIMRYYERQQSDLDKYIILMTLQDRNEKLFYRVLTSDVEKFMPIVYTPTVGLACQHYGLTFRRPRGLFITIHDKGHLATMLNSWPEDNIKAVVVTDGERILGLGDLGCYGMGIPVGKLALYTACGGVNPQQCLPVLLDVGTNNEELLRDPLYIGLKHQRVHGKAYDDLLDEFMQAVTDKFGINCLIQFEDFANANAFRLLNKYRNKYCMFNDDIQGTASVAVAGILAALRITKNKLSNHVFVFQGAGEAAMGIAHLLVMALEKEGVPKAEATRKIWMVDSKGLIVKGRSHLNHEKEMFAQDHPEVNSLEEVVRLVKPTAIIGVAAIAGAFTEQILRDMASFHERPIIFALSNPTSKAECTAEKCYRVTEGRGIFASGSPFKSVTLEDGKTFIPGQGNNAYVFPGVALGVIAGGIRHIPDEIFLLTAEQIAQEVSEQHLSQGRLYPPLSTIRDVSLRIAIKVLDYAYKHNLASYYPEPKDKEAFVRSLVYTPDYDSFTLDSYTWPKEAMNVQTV
Put plainly: ME3 inhibition assay (diaphorase/resazurin coupled fluorescence). Conditions: 10 μM compound concentration; read-out: Malic Enzyme 3 % inhibition (10 μM). A digest of the protocol: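 Coupled read-out: NADPH made by human ME3 (20 nM stock) drives diaphorase conversion of resazurin (50 μM) to resorufin; buffer 50 mM Tris-HCl pH 7.5, 10 mM MnCl2, 3 mM L-malate.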
(In general: The colour change of resazurin is a common sign of viable cells or microbes.)

A further assay has as its target human ME2 enzyme (Homo sapiens, UniProt P23368). In words: ME2 inhibition assay (diaphorase/resazurin coupled fluorescence). The following applies: 10 μM compound concentration; read-out: Malic Enzyme 2 % inhibition (10 μM). A digest of the protocol: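 Human ME2 (10 μL of 60 nM) was preincubated 5 min at room temperature with compound (10 μM) in 50 mM Tris-HCl pH 7.5, 10 mM MnCl2, 7 mM L-malate, 50 μM resazurin and 0.025 mg/ml diaphorase. The reaction was started with 10 μL of 2 mM β-NAD+ and run 2 hours at room temperature. Resorufin fluorescence (ex 540/em 600 nm) was normalized to enzyme-only (100%) and no-enzyme (0%) controls as % activity.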

For the next assay, the target named is T2, human ME1 enzyme (Homo sapiens, UniProt P48163).
T2 sequence (P48163 1-572): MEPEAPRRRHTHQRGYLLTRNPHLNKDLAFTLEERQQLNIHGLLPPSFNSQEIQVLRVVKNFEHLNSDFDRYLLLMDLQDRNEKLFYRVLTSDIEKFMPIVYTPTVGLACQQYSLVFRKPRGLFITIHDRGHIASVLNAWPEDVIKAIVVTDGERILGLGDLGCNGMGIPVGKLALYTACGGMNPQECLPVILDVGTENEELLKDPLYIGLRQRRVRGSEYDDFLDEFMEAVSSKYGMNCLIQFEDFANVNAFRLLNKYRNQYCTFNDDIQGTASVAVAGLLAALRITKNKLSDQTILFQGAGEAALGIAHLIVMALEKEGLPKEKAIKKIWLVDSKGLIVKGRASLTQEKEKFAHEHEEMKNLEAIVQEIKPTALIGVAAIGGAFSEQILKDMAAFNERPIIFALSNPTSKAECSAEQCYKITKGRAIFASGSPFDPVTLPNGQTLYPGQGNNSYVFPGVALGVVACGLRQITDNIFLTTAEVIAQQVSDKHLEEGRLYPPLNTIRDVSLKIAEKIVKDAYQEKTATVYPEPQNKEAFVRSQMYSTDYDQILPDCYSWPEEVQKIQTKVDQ
In words: ME1 inhibition assay (diaphorase/resazurin coupled fluorescence). The following applies: 10 μM compound concentration; read-out: Malic Enzyme 1 % inhibition (10 μM). In short, it runs like this: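 Compounds at 10 μM preincubated 15 min in 50 mM Tris-HCl pH 7.5, 10 mM MnCl2, 2 mM L-malate, 10 μM resazurin, 0.01 mg/ml diaphorase, then human ME1 added for 5 min; reaction started with NADP+ and run 2 h at room temperature. Resorufin fluorescence (ex 540/em 600 nm) normalized to enzyme-only (100%) and no-enzyme (0%) controls.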

human ME2 enzyme, sequence (P23368 19-584): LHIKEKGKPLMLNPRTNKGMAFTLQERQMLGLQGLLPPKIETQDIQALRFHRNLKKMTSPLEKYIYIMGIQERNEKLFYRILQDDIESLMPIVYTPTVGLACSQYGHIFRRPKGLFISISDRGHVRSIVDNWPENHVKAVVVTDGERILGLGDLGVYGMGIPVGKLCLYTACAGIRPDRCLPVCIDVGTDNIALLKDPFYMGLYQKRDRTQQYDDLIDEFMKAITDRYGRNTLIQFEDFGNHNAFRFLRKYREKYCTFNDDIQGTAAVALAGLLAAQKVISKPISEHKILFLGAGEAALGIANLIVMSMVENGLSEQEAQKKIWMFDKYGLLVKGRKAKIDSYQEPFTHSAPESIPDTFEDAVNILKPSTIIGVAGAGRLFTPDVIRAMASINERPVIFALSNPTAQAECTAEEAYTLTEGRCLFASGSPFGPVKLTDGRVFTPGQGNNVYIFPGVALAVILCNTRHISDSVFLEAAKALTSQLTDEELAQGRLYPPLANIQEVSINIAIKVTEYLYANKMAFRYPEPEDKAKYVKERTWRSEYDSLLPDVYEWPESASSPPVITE

Regarding `O=C(CCc1cccc(C(F)(F)F)c1)N1CCN(c2ccc(O)cn2)CC1` [I.72, 1-[4-(5-Hydroxy-pyridin-2-yl)-piperazin-1-yl]-3-(3-trifluoro-methylphenyl)-propan-1-one], the inhibition at 10 µM on human ME3 enzyme is over 90%; on human ME2 enzyme, 70 to 89%; on human ME1 enzyme it was over 90%.
On to `O=C(c1cc2ccccc2oc1=O)N1CCN(c2ccc(O)cn2)CC1` [I.73, 3-[4-(5-Hydroxy-2-pyridyl)-piperazine-1-carbonyl]-chromen-2-one], for which the inhibition at 10 µM on human ME3 enzyme is over 90%; on human ME2 enzyme it was 70 to 89%; at human ME1 enzyme it was 70 to 89%.
For the compound `O=C(C=C(c1ccccc1)c1ccccc1)N1CCN(c2ccc(O)cn2)CC1` [I.74, 1-[4-(5-Hydroxy-2-pyridyl)-piperazin-1-yl]-3,3-diphenyl-prop-2-en-1-one], the inhibition at 10 µM on human ME3 enzyme is over 90%; on human ME2 enzyme, 70 to 89%; at human ME1 enzyme, over 90%.
In the case of `O=C(CC(c1ccccc1)c1ccccc1)N1CCN(c2ccc(O)cn2)CC1` [I.75, 1-[4-(5-Hydroxy-2-pyridyl)-piperazin-1-yl]-3,3-diphenyl-propan-1-one], the inhibition at 10 µM was over 90% at human ME3 enzyme, 70 to 89% at human ME2 enzyme and over 90% at human ME1 enzyme.
For the compound `O=C(CCc1ccc(Cl)c(Cl)c1)N1CCN(c2ccc(O)cn2)CC1` [I.79, 3-(3,4-Dichloro-phenyl)-1-[4-(5-hydroxy-pyridin-2-yl)-piperazin-1-yl]-propan-1-one], the inhibition at 10 µM on human ME3 enzyme, at human ME2 enzyme and on human ME1 enzyme was over 90% in each case.
`Cc1cccc(Cl)c1C(=O)N1CCN(c2ccc(O)cn2)CC1` [I.80, (2-Chloro-6-methylphenyl)-[4-(5-hydroxy-pyridin-2-yl)-piperazin-1-yl]-methanone]: the inhibition at 10 µM on human ME3 enzyme, on human ME2 enzyme and at human ME1 enzyme was over 90% each time.
In the case of `O=C(CCc1ccc(Cl)cc1)N1CCN(c2ccc(O)cn2)CC1` [I.82, 3-(4-Chloro-phenyl)-1-[4-(5-hydroxy-pyridin-2-yl)-piperazin-1-yl]-propan-1-one], the inhibition at 10 µM at human ME3 enzyme, on human ME2 enzyme and at human ME1 enzyme was over 90% each time.
Take `O=C(CNC12CC3CC(CC(C3)C1)C2)N1CCN(c2ccc(O)cn2)CC1` [I.83, 2-(1-Adamantyl-amino)-1-[4-(5-hydroxy-2-pyridyl)-piperazin-1-yl]ethanone]: the inhibition at 10 µM on human ME3 enzyme is over 90%; on human ME2 enzyme, 50 to 69%; on human ME1 enzyme it was 50 to 69%.
For the compound `COc1ccc(C(=CC(=O)N2CCN(c3ccc(O)cn3)CC2)c2ccc(OC)cc2)cc1` [I.84, 1-[4-(5-Hydroxy-2-pyridyl)-piperazin-1-yl]-3,3-bis(4-methoxy-phenyl)-prop-2-en-1-one], the inhibition at 10 µM at human ME3 enzyme is over 90%; on human ME2 enzyme it was 70 to 89%; on human ME1 enzyme, 70 to 89%.
As to `O=C(c1cc2cc(F)ccc2[nH]1)N1CCN(c2ccc(O)cn2)CC1` [I.88], the inhibition at 10 µM was over 90% on human ME3 enzyme, 70 to 89% at human ME2 enzyme and over 90% on human ME1 enzyme.
For the compound `O=C(CCc1cccc(F)c1)N1CCN(c2ccc(O)cn2)CC1` [I.92, 3-(3-Fluoro-phenyl)-1-[4-(5-hydroxy-pyridin-2-yl)-piperazin-1-yl]-propan-1-one], the inhibition at 10 µM on human ME3 enzyme, on human ME2 enzyme and on human ME1 enzyme was over 90% throughout.
Consider `COc1ccc(C(CC(=O)N2CCN(c3ccc(O)cn3)CC2)c2ccc(OC)cc2)cc1` [I.93, 1-[4-(5-Hydroxy-2-pyridyl)-piperazin-1-yl]-3,3-bis(4-methoxy-phenyl)-propan-1-one], for which the results for the inhibition at 10 µM on human ME3 enzyme, at human ME2 enzyme and at human ME1 enzyme were over 90%, 70 to 89% and 70 to 89%, respectively.
Consider `O=C(CC=C(c1ccccc1)c1ccccc1)N1CCN(c2ccc(O)cn2)CC1` [I.94, 1-[4-(5-Hydroxy-2-pyridyl)-piperazin-1-yl]-4,4-diphenyl-but-3-en-1-one], for which the inhibition at 10 µM is over 90% on human ME3 enzyme, 70 to 89% at human ME2 enzyme and 70 to 89% at human ME1 enzyme.
With `O=C(N1CCN(c2ccc(O)cn2)CC1)C(O)(c1ccccc1)C1CCCCC1` (stereo not drawn) [I.95, 2-cyclohexyl-2-hydroxy-1-[4-(5-hydroxy-2-pyridyl)piperazin-1-yl]-2-phenyl-ethanone], the inhibition at 10 µM on human ME3 enzyme is over 90%; at human ME2 enzyme it was 70 to 89%; at human ME1 enzyme, 70 to 89%.
For `CN(CC(=O)N1CCN(c2ccc(O)cn2)CC1)CC12CC3CC(CC(C3)C1)C2` [I.96, 2-[1-Adamantyl-methyl-(methyl)-amino]-1-[4-(5-hydroxy-2-pyridyl)-piperazin-1-yl]ethanone], the inhibition at 10 µM on human ME3 enzyme was over 90%; on human ME2 enzyme, 70 to 89%; at human ME1 enzyme, 70 to 89%.
With `Cc1ccccc1CCC(=O)N1CCN(c2ccc(O)cn2)CC1` [I.107, 1-[4-(5-Hydroxy-pyridin-2-yl)-piperazin-1-yl]-3-o-tolyl-propan-1-one], the inhibition at 10 µM on human ME3 enzyme, on human ME2 enzyme and on human ME1 enzyme was over 90% in each case.
Consider `CC(CC(=O)N1CCN(c2ccc(O)cn2)CC1)c1ccccc1` (stereo not drawn) [I.115, 1-[4-(5-Hydroxy-pyridin-2-yl)-piperazin-1-yl]-3-phenyl-butan-1-one dihydro-chloride], for which the inhibition at 10 µM at human ME3 enzyme, on human ME2 enzyme and on human ME1 enzyme was over 90% in each case.
Regarding `O=C(CCc1cccs1)N1CCN(c2ccc(O)cn2)CC1` [I.116, 1-[4-(5-Hydroxy-pyridin-2-yl)-piperazin-1-yl]-3-thiophen-2-yl-propan-1-one], the inhibition at 10 µM at human ME3 enzyme, on human ME2 enzyme and on human ME1 enzyme was over 90% each time.
Regarding `O=C(CCC1CCCCC1)N1CCN(c2ccc(O)cn2)CC1` [I.121, 3-Cyclohexyl-1-[4-(5-hydroxy-2-pyridyl)-piperazin-1-yl]propan-1-one], the inhibition at 10 µM at human ME3 enzyme, at human ME2 enzyme and at human ME1 enzyme was over 90% in each case.
As to `O=C(CCc1cc2ccccc2s1)N1CCN(c2ccc(O)cn2)CC1` [I.122, 3-Benzo[b]-thiophen-2-yl-1-[4-(5-hydroxy-pyridin-2-yl)-piperazin-1-yl]-propan-1-one], the inhibition at 10 µM at human ME3 enzyme, at human ME2 enzyme and on human ME1 enzyme was over 90% each time.
With `O=C(c1ccc(-c2ccccc2)s1)N1CCN(c2ccc(O)cn2)CC1` [I.123, [4-(5-Hydroxy-pyridin-2-yl)-piperazin-1-yl]-(5-phenyl-thiophen-2-yl)-methanone], the inhibition at 10 µM on human ME3 enzyme was over 90%; on human ME2 enzyme, 70 to 89%; at human ME1 enzyme, 70 to 89%.
Turning to `O=C(C1CC(O)(c2ccccc2)C1)N1CCN(c2ccc(O)cn2)CC1` (stereo not drawn) [I.124, (3-Hydroxy-3-phenylcyclo-butyl)-[4-(5-hydroxy-pyridin-2-yl)-piperazin-1-yl]-methanone], the inhibition at 10 µM on human ME3 enzyme, at human ME2 enzyme and at human ME1 enzyme was over 90% each time.

As usually defined, the inhibition is how much of the control response was suppressed.

For the origin of these results see patent publication US11225480B2, “Malic enzyme inhibitors” (SUN PHARMA ADVANCED RESEARCH COMPANY LTD, priority 2019, dated 2022).
